Experimental findings from patent US10308639B2, “Phosphatidylinositol 3-kinase inhibitors” (Gilead Sciences, Inc., priority 2014, dated 2019) are described below.

Read-outs that look alike come from different tables or passages of the source.

What is called IC50 is the midpoint of a concentration-inhibition curve.

Common to all, as to assay type: biochemical
In one test the target is T1, PI3Kβ (Homo sapiens, UniProt P42338).
T1 construct: made in house
Kind of test: TR-FRET enzymatic activity assay, PI3Kβ. For orientation: Time-resolved FRET reads energy transfer from a long-lived donor to a nearby acceptor.

A further test concerns the target T2, PI3Kδ (Homo sapiens, UniProt O00329).
T2 construct: made in house
Kind of test: TR-FRET enzymatic activity assay, PI3Kδ.

The next test has as its target T3, PI3Kγ (Homo sapiens, UniProt P48736).
T3 construct: made in house
The test can be described thus: TR-FRET enzymatic activity assay, PI3Kγ. To be noted: read-out: PI3Kγ IC50. Summed up:
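TR-FRET read-out of enzyme activity, run separately for each PI3K isoform.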

The mark [1] stands for this setting: Table 2, TR-FRET, 2x Km ATP, 30 minutes at 25° C.

T3 sequence (P48736 whole entry): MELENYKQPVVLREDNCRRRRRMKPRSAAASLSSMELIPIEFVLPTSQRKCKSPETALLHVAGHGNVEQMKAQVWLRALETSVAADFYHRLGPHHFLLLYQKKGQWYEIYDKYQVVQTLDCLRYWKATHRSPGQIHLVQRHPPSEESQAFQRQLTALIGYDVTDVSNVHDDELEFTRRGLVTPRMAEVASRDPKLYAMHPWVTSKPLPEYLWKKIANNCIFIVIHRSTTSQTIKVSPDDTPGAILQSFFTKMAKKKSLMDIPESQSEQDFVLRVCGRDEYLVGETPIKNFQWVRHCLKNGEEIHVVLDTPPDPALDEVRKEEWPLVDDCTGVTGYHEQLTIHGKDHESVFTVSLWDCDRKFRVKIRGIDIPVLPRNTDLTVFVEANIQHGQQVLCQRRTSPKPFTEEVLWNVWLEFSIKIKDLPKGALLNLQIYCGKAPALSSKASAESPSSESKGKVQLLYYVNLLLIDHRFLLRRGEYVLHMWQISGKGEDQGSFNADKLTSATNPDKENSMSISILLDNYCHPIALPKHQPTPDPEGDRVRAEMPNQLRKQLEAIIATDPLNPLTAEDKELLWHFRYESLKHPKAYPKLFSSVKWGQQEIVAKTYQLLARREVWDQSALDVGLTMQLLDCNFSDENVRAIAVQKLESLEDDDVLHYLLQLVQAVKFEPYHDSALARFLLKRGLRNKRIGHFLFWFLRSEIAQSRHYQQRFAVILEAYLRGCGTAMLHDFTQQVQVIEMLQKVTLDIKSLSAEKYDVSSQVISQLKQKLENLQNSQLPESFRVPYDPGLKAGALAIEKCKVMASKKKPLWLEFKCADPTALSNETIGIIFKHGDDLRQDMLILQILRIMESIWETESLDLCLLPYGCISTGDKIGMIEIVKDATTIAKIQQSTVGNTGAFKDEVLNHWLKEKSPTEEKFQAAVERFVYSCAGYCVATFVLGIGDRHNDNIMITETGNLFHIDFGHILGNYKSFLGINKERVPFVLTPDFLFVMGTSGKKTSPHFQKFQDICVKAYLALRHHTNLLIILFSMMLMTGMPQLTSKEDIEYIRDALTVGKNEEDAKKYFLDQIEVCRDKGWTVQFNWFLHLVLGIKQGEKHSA
T2 sequence (O00329 whole entry): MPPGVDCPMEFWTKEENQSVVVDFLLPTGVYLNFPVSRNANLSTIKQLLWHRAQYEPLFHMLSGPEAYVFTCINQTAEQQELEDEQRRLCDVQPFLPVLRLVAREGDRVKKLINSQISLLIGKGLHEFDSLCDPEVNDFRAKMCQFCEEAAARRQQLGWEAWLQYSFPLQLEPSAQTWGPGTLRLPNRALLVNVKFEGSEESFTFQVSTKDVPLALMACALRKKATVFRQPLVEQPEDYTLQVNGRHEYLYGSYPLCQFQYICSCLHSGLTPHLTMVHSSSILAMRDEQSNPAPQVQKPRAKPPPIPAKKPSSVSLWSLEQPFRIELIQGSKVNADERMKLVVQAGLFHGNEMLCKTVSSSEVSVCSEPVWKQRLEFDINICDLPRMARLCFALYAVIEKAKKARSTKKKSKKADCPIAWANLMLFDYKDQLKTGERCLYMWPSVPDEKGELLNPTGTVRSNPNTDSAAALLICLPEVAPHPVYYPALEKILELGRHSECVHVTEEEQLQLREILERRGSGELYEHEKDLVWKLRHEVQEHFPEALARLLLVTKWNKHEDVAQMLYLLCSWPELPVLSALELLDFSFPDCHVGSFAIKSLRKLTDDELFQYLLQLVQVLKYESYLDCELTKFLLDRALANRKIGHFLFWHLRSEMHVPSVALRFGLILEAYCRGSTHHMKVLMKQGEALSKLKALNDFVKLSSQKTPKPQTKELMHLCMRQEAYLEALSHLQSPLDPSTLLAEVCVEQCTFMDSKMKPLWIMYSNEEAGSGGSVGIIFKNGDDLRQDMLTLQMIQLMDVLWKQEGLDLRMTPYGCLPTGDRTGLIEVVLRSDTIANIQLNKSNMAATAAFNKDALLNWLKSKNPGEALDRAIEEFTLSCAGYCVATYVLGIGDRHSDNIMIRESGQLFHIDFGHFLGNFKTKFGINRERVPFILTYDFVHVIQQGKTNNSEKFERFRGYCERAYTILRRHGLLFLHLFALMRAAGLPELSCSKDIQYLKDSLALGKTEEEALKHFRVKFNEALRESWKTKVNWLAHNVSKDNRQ
T2 sequence (P27986 whole entry partner): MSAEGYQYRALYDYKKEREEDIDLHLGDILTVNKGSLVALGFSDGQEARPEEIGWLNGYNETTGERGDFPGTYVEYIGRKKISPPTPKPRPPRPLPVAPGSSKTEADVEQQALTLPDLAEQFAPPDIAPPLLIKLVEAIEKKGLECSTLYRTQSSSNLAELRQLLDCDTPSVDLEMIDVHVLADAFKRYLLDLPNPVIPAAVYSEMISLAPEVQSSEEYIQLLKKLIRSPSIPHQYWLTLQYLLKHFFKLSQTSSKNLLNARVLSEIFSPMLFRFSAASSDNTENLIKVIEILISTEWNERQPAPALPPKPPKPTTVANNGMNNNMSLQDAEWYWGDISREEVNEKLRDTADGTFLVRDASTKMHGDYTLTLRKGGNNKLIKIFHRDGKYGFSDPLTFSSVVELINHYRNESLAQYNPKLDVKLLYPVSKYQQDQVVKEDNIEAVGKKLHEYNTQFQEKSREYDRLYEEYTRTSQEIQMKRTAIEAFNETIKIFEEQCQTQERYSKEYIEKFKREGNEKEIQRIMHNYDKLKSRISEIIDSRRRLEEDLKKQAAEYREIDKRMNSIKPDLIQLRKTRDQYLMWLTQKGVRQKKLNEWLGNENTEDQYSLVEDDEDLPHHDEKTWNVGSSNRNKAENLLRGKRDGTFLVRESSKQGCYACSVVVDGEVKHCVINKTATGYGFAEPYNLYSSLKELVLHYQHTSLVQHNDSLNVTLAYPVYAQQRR
T1 sequence (P42338 whole entry): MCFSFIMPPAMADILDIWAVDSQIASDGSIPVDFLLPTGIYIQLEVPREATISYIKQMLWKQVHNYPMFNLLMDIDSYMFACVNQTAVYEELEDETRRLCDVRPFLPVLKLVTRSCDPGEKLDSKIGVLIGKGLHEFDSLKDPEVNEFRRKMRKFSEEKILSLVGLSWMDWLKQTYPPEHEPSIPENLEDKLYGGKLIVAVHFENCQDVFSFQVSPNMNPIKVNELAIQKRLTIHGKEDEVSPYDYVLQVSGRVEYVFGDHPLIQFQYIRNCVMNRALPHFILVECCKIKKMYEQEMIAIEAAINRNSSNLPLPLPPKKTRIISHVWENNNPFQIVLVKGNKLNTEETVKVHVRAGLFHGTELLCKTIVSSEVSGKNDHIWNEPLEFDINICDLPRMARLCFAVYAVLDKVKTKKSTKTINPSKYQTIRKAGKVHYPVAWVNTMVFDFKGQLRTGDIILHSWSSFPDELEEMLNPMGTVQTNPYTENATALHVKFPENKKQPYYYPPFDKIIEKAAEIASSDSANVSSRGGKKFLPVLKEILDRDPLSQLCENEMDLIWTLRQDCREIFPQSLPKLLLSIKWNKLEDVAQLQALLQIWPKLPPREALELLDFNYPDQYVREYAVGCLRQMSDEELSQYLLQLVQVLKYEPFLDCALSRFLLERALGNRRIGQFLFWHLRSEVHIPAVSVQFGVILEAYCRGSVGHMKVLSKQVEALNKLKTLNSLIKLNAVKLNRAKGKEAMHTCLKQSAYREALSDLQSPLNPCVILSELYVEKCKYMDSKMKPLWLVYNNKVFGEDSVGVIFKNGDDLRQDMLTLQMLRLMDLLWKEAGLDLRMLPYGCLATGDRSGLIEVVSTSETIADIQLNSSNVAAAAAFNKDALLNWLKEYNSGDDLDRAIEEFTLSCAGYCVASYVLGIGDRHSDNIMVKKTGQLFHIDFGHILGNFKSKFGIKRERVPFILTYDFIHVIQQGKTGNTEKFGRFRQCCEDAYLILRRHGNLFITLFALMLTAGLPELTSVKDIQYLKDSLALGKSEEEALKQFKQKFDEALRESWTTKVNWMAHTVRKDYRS
T1 sequence (P27986 whole entry partner): as the sequence (P27986 whole entry partner) above

As to `Cc1nc(N)nc(N[C@@H](c2ccccc2)c2nc3cccc(Cl)c3c(=O)n2-c2cc[nH]n2)c1C#N` [Compound 110, (S)-2-amino-4-(((5-chloro-4-oxo-3-(1H-pyrazol-3-yl)-3,4-dihydroquinazolin-2-yl)(phenyl)methyl)amino)-6-methylpyrimidine-5-carbonitrile], the figures for the IC50 on PI3Kβ (setting [1]), at PI3Kδ (setting [1]) and at PI3Kγ (setting [1]) were 4 nM, 1 nM and 410 nM, respectively.

Turning to `CC[C@H](Nc1nc(N)nc(N)c1C#N)c1nc2ccc(F)cc2c(=O)n1-c1cc[nH]n1` [Compound 112, (S)-2,4-diamino-6-((1-(6-fluoro-4-oxo-3-(1H-pyrazol-3-yl)-3,4-dihydroquinazolin-2-yl)propyl)amino)pyrimidine-5-carbonitrile], the values for the IC50 against PI3Kβ (setting [1]), against PI3Kδ (setting [1]) and on PI3Kγ (setting [1]) were 17 nM, 4 nM and 2200 nM, respectively.

In the case of `N#Cc1c(N)nc(N)nc1N[C@H](c1nc2ccc(F)cc2c(=O)n1-c1cc[nH]n1)C1CC1` [Compound 113, (S)-2,4-diamino-6-((cyclopropyl(6-fluoro-4-oxo-3-(1H-pyrazol-3-yl)-3,4-dihydroquinazolin-2-yl)methyl)amino)pyrimidine-5-carbonitrile], the IC50 at PI3Kβ (setting [1]) amounted to 2 nM; at PI3Kδ (setting [1]), 1 nM; on PI3Kγ (setting [1]), 980 nM.

Take `Nc1nc(N)c(Cl)c(N[C@H](c2nc3ccc(F)cc3c(=O)n2-c2cc[nH]n2)C2CC2)n1` [Compound 114, (S)-2-(cyclopropyl((2,6-diamino-5-chloropyrimidin-4-yl)amino)methyl)-6-fluoro-3-(1H-pyrazol-3-yl)quinazolin-4(3h)-one]: the IC50 was 110 nM on PI3Kβ (setting [1]), 23 nM at PI3Kδ (setting [1]) and more than 10000 nM at PI3Kγ.

`C[C@H](Nc1nc(N)nc(N)c1C#N)c1nc2ccc(F)cc2c(=O)n1-c1cc[nH]n1` [Compound 115, (S)-2,4-diamino-6-((1-(6-fluoro-4-oxo-3-(1H-pyrazol-3-yl)-3,4-dihydroquinazolin-2-yl)ethyl)amino)pyrimidine-5-carbonitrile]: the IC50 on PI3Kβ (setting [1]) turned out to be 2 nM; against PI3Kδ (setting [1]), 1 nM; on PI3Kγ (setting [1]), 560 nM.

For `CC[C@H](Nc1nc(N)nc(N)c1Cl)c1nc2ccc(F)cc2c(=O)n1-c1cc[nH]n1` [Compound 116, (S)-2-(1-((2,6-diamino-5-chloropyrimidin-4-yl)amino)propyl)-6-fluoro-3-(1H-pyrazol-3-yl)quinazolin-4(3h)-one], the IC50 against PI3Kβ (setting [1]) is 210 nM; on PI3Kδ (setting [1]), 44 nM; at PI3Kγ, more than 10000 nM.

In the case of `C[C@H](NC(=O)c1c(N)nn2cccnc12)c1nc2cccc(Cl)c2c(=O)n1-c1cc[nH]n1` [Compound 117, (S)-2-amino-N-(1-(5-chloro-4-oxo-3-(1H-pyrazol-3-yl)-3,4-dihydroquinazolin-2-yl)ethyl)pyrazolo[1,5-a]pyrimidine-3-carboxamide], the half-inhibitory concentration (IC50) against PI3Kβ (setting [1]) was 37 nM; against PI3Kδ (setting [1]) it was 110 nM; on PI3Kγ (setting [1]) it was 160 nM.

As for `CC[C@H](NC(=O)c1nccnc1N)c1nc2c(Cl)ccc(Cl)c2c(=O)n1-c1cc[nH]n1` [Compound 118, (S)-3-amino-N-(1-(5,8-dichloro-4-oxo-3-(1H-pyrazol-3-yl)-3,4-dihydroquinazolin-2-yl)propyl)pyrazine-2-carboxamide], the 50% inhibitory concentration (IC50) against PI3Kβ (setting [1]) was 510 nM; at PI3Kδ (setting [1]), 260 nM; at PI3Kγ it was more than 10000 nM.

Take `CC[C@H](NC(=O)c1cnn2cccnc12)c1nc2c(Cl)ccc(Cl)c2c(=O)n1-c1cn[nH]c1` [Compound 119, (S)—N-(1-(5,8-dichloro-4-oxo-3-(1H-pyrazol-4-yl)-3,4-dihydroquinazolin-2-yl)propyl)pyrazolo[1,5-a]pyrimidine-3-carboxamide]: the IC50 turned out to be 360 nM on PI3Kβ (setting [1]), 170 nM at PI3Kδ (setting [1]) and 7200 nM at PI3Kγ (setting [1]).

For the compound `CC[C@H](NC(=O)c1cnn2cccnc12)c1nc2c(Cl)ccc(Cl)c2c(=O)n1-c1cc[nH]n1` [Compound 120, (S)—N-(1-(5,8-dichloro-4-oxo-3-(1H-pyrazol-3-yl)-3,4-dihydroquinazolin-2-yl)propyl)pyrazolo[1,5-a]pyrimidine-3-carboxamide], the IC50 on PI3Kβ (setting [1]) was 530 nM; at PI3Kδ (setting [1]), 720 nM; on PI3Kγ it was more than 10000 nM.

As for `C[C@H](NC(=O)c1nccnc1N)c1nc2cccc(Cl)c2c(=O)n1-c1cc[nH]n1` [Compound 121, (S)-3-amino-N-(1-(5-chloro-4-oxo-3-(1H-pyrazol-3-yl)-3,4-dihydroquinazolin-2-yl)ethyl)pyrazine-2-carboxamide], the figures for the 50% inhibitory concentration (IC50) against PI3Kβ (setting [1]), at PI3Kδ (setting [1]) and on PI3Kγ (setting [1]) were 79 nM, 20 nM and 890 nM, respectively.

`CC[C@H](NC(=O)c1nccnc1N)c1nc2c(Cl)ccc(Cl)c2c(=O)n1-c1cn[nH]c1` [Compound 122, (S)-3-amino-N-(1-(5,8-dichloro-4-oxo-3-(1H-pyrazol-4-yl)-3,4-dihydroquinazolin-2-yl)propyl)pyrazine-2-carboxamide]: the 50% inhibitory concentration (IC50) at PI3Kβ (setting [1]) is 640 nM; at PI3Kδ (setting [1]) it was 200 nM; on PI3Kγ, more than 10000 nM.

For `CCC[C@H](Nc1nc(N)nc(N)c1Cl)c1nc2cccc(Cl)c2c(=O)n1-c1cc[nH]n1` [Compound 124, (S)-5-chloro-2-(1-((2,6-diamino-5-chloropyrimidin-4-yl)amino)butyl)-3-(1H-pyrazol-3-yl)quinazolin-4(3h)-one], the IC50 at PI3Kβ (setting [1]) was 14 nM; at PI3Kδ (setting [1]), 12 nM; at PI3Kγ (setting [1]), 6700 nM.

Take `C[C@H](Nc1nc(N)nc(N)c1Cl)c1nc2cccc(C(F)F)c2c(=O)n1-c1cc[nH]n1` [Compound 126, (S)-2-(1-((2,6-diamino-5-chloropyrimidin-4-yl)amino)ethyl)-5-(difluoromethyl)-3-(1H-pyrazol-3-yl)quinazolin-4(3H)-one]: the half-inhibitory concentration (IC50) amounted to 5 nM against PI3Kβ (setting [1]), 3 nM against PI3Kδ (setting [1]) and 2800 nM at PI3Kγ (setting [1]).

On to `N#Cc1c(N)nc(N)nc1N[C@H](c1nc2cccc(Cl)c2c(=O)n1-c1cc[nH]n1)C1CCC1` [Compound 128, (S)-2,4-diamino-6-(((5-chloro-4-oxo-3-(1H-pyrazol-3-yl)-3,4-dihydroquinazolin-2-yl)(cyclobutyl)methyl)amino)pyrimidine-5-carbonitrile], for which the IC50 on PI3Kβ (Table 2a, same assay) is 2 nM; at PI3Kδ (Table 2a, same assay), 2 nM; at PI3Kγ (Table 2a, same assay), 2000 nM.

As to `Nc1nc(N)c(Cl)c(N[C@H](c2nc3c(Cl)cc(F)cc3c(=O)n2-c2cc[nH]n2)C2CCC2)n1` [Compound 129, (S)-8-chloro-2-(cyclobutyl((2,6-diamino-5-chloropyrimidin-4-yl)amino)methyl)-6-fluoro-3-(1H-pyrazol-3-yl)quinazolin-4(3H)-one], the IC50 against PI3Kβ (Table 2a, same assay) is 270 nM; against PI3Kδ (Table 2a, same assay), 86 nM; at PI3Kγ (Table 2a, same assay) it was more than 10000 nM.

For `N#Cc1c(N)nc(N)nc1N[C@H](c1nc2c(Cl)cc(F)cc2c(=O)n1-c1cc[nH]n1)C1CCC1` [Compound 130, (S)-2,4-diamino-6-(((8-chloro-6-fluoro-4-oxo-3-(1H-pyrazol-3-yl)-3,4-dihydroquinazolin-2-yl)(cyclobutyl)methyl)amino)pyrimidine-5-carbonitrile], the concentration for half-maximal inhibition (IC50) against PI3Kβ (Table 2a, same assay) came to 4 nM; on PI3Kδ (Table 2a, same assay) it was 4 nM; on PI3Kγ (Table 2a, same assay), 7800 nM.

With `N#Cc1c(N)nc(N)nc1N[C@H](c1nc2cccc(C(F)F)c2c(=O)n1-c1cc[nH]n1)C1CCC1` [Compound 131, (S)-2,4-diamino-6-((cyclobutyl(5-(difluoromethyl)-4-oxo-3-(1H-pyrazol-3-yl)-3,4-dihydroquinazolin-2-yl)methyl)amino)pyrimidine-5-carbonitrile], the IC50 is 2 nM on PI3Kβ (Table 2a, same assay); 4 nM against PI3Kδ (Table 2a, same assay); 2000 nM on PI3Kγ (Table 2a, same assay).

As for `Nc1nc(N)c(Cl)c(N[C@H](c2nc3cccc(C(F)F)c3c(=O)n2-c2cc[nH]n2)C2CCC2)n1` [Compound 132, (S)-2-(cyclobutyl((2,6-diamino-5-chloropyrimidin-4-yl)amino)methyl)-5-(difluoromethyl)-3-(1H-pyrazol-3-yl)quinazolin-4(3H)-one], the IC50 on PI3Kβ (Table 2a, same assay) is 75 nM; on PI3Kδ (Table 2a, same assay) it was 42 nM; at PI3Kγ (Table 2a, same assay) it was more than 10000 nM.

For `N#Cc1c(N)nc(N)nc1N[C@H](c1nc2c(C(F)(F)F)cccc2c(=O)n1-c1cc[nH]n1)C1CC1` [Compound 133, (S)-2,4-diamino-6-((cyclopropyl(4-oxo-3-(1H-pyrazol-3-yl)-8-(trifluoromethyl)-3,4-dihydroquinazolin-2-yl)methyl)amino)pyrimidine-5-carbonitrile], the IC50 was found to be 2 nM against PI3Kβ (Table 2a, same assay); 3 nM on PI3Kδ (Table 2a, same assay); 474 nM at PI3Kγ (Table 2a, same assay).

As to `Nc1nc(N)c(Cl)c(N[C@H](c2nc3c(C(F)(F)F)cccc3c(=O)n2-c2cc[nH]n2)C2CC2)n1` [Compound 134, (S)-2-(cyclopropyl((2,6-diamino-5-chloropyrimidin-4-yl)amino)methyl)-3-(1H-pyrazol-3-yl)-8-(trifluoromethyl)quinazolin-4(3H)-one], the IC50 against PI3Kβ (Table 2a, same assay) is 37 nM; on PI3Kδ (Table 2a, same assay) it was 24 nM; on PI3Kγ (Table 2a, same assay), 9300 nM.

With `C[C@H](Nc1nc(N)nc(N)c1C#N)c1nc2c(C(F)(F)F)cccc2c(=O)n1-c1cc[nH]n1` [Compound 135, (S)-2,4-diamino-6-((1-(4-oxo-3-(1H-pyrazol-3-yl)-8-(trifluoromethyl)-3,4-dihydroquinazolin-2-yl)ethyl)amino)pyrimidine-5-carbonitrile], the IC50 worked out at 2 nM against PI3Kβ (Table 2a, same assay); 1 nM against PI3Kδ (Table 2a, same assay); 340 nM on PI3Kγ (Table 2a, same assay).

`C[C@H](Nc1nc(N)nc(N)c1Cl)c1nc2c(C(F)(F)F)cccc2c(=O)n1-c1cc[nH]n1` [Compound 136, (S)-2-(1-((2,6-diamino-5-chloropyrimidin-4-yl)amino)ethyl)-3-(1H-pyrazol-3-yl)-8-(trifluoromethyl)quinazolin-4(3H)-one]: the half-maximal inhibitory concentration (IC50) is 9 nM against PI3Kβ (Table 2a, same assay); 11 nM against PI3Kδ (Table 2a, same assay); 5500 nM at PI3Kγ (Table 2a, same assay).
